Source: patent US8906925B2, “Pyrido[4,3-B]indoles containing rigid moieties” (Medivation Technologies, Inc., priority 2008, dated 2014)
Read-outs that look alike come from different tables or passages of the source.

Assays:
[1] = biological target: T1, rat adrenergic α1B receptor (Rattus norvegicus, UniProt P15823); test: Adrenergic α1B radioligand binding ([3H]Prozosin); settings: compound at 1 μM
T1 construct: from tissue; host or cells: Wistar rat liver
T1 sequence (P15823 1-515): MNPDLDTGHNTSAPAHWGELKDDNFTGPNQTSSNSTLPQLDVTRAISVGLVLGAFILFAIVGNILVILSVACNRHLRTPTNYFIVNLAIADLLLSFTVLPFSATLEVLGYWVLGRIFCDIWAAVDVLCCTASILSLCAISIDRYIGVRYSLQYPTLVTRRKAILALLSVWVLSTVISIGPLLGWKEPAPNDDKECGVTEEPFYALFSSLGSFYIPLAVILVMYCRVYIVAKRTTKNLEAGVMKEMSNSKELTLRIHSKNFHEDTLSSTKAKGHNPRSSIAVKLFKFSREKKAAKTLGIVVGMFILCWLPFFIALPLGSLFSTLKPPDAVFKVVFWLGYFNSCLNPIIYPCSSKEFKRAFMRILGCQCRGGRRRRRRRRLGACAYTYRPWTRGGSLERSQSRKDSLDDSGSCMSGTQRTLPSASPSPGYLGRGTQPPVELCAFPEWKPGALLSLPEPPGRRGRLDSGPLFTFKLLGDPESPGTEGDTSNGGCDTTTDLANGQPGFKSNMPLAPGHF
Description: To evaluate in radioligand binding assays the activity of compounds of the invention, rat adrenergic α1B receptor obtained from Wistar Rat liver (Garcia-S'ainz, J. A. et al., Biochem. Biophys. Res. Commun. 186:760, 1992; Michel A. D. et al., Br. J. Pharmacol. 98:883, 1989) in a modified Tris-HCl buffer (50 mM Tris-HCl buffer, pH 7.4, 0.5 mM EDTA) was used. Compounds of the invention were incubated with 0.25 nM [^3H]Prozosin for 60 min. at 25° C. Non-specific binding was estimated in the presence of 10 μM phentolamine. Receptor proteins were filtered and washed, the filters were then counted to determine [^3H]Prozosin specifically bound. Compounds were screened at 1 μM or lower, using 1% DMSO as vehicle. Compounds of the invention were tested in this biochemical assay and percent inhibition of specific binding was determined.

C57B1I6J mice = test: Catalepsy in the mouse bar test (EPS model); type: in vivo; settings: for effects on catalepsy, ANOVA: 0.03, 0.1, 0.3, 1, 3, 10, 30 oral, 30 min, 1 h, and 3 h, incl. haloperidol group
Description: Antipsychotic drugs are known to induce extrapyramidal syndrome (EPS) in animals and in humans. An animal model considered to be predictive of EPS is the mouse bar test, which measures cataleptic responses to pharmacological agents.
Male C57B1I6J mice from Jackson Laboratories (Bar Harbor, Me.) were used. Mice were received at 6-weeks of age. Upon receipt, mice were assigned unique identification numbers (tail marked) and were group housed with 4 mice/cage in OptiMICE ventilated cages. All animals remained housed in groups of four during the remainder of the study. All mice were acclimated to the colony room for at least two weeks prior to testing and were subsequently tested at an average age of 8 weeks. During the period of acclimation, mice were examined on a regular basis, handled, and weighed to assure adequate health and suitability. Animals were maintained on a 12 h/12 h light/dark cycle. The room temperature was maintained between 20 and 23° C. with a relative humidity maintained between 30% and 70%. Chow and water were provided ad libitum for the duration of the study. In each test, animals were randomly assigned across treatment groups.
The following compounds were used for this study. 1) Compound No. 83, 88 or 90 (0.03, 0.1, 0.3, 1, 3, 10, 30) was dissolved in 3% Tween in PBS and administered orally at a dose volume of 10 mL/kg; 2) Haloperidol (2 mg/kg) was dissolved in 10% DMSO and administered i.p. at a dose volume of 10 mL/kg.
The front paws of a mouse were placed on a horizontal metal bar raised 2″ above a Plexiglas platform and time was recorded for up to 30 seconds per trial. The test ended when the animal's front paws returned to the platform or after 30 seconds. The test was repeated three times and the average of the three trials was reported as the intensity index of catalepsy. Antipsychotic agents such as haloperidol cause rigidity as a side effect. Animals treated with haloperidol will hold on to the bar without moving for several minutes. Mice were brought to the activity experimental room for at least 1 h acclimation to the experimental room conditions prior to testing. Following injection of either vehicle, Compound No. 83, 88 or 90, or haloperidol, catalepsy was assessed at 3 time points: 30 min, 1 h, and 3 h. At the end of each trial, the apparatus was thoroughly cleaned with 70% ethanol.
Data were analyzed by analysis of variance (ANOVA) followed by post-hoc comparisons with Fisher Tests when appropriate. An effect was considered significant if p<0.05.

[2] = percent inhibition of specific binding, read-out: Inhibition of ligand binding, Adrenergic α1B

SMILES	inhibition at 1 µM [1, 2]	effects on catalepsy, ANOVA (C57B1I6J mice)	sedation observed in bar test (C57B1I6J mice; 30 mg/kg, oral)	further results
Cc1ccc(C(O)Cn2c3c(c4cc(C)ccc42)CN(C)CC3)cc1 (racemic) [Compound 43, racemic-2-(1,2,3,4-tetrahydro-2,8-dimethylpyrido[4,3-b]indol-5-yl)-1-p-tolylethanol]	97%			Inhibition of ligand binding, Adrenergic α1B ([1]; percent inhibition of specific binding, 1 µM): 96%
Cc1ccc2c(c1)c1c(n2CC#Cc2ccccn2)CCN(C)C1 [Compound No. 500, 2,3,4,5-tetrahydro-2,8-dimethyl-5-(3-(pyridin-2-yl)prop-2-ynyl)-1H-pyrido[4,3-b]indole]				inhibition at 1 µM ([1]; read-out: Inhibition of ligand binding, Adrenergic α1B (percent inhibition of specific binding)): 27%
C/C(=C\n1c2c(c3cc(Cl)ccc31)CN(C)CC2)c1ccc(F)cc1 [Compound 83, (E)-8-chloro-5-(2-(4-fluorophenyl)prop-1-enyl)-2,3,4,5-tetrahydro-2-methyl-1H-pyrido[4,3-b]indole]	96%	significant treatment effect	caused sedation	sedation observed in bar test (C57B1I6J mice; 10 mg/kg, oral): also caused sedation, but at lower levels
C/C(=C\n1c2c(c3cc(Cl)ccc31)CN(C)CC2)c1ccncc1 [Compound 90, (E)-8-chloro-2,3,4,5-tetrahydro-2-methyl-5-(2-(pyridin-4-yl)prop-1-enyl)-1H-pyrido[4,3-b]indole]		significant treatment effect	caused high levels of sedation	latency to hold the bar (C57B1I6J mice; 10 mg/kg, oral): increase; sedation observed in bar test (C57B1I6J mice; 10 mg/kg, oral): also caused sedation, but at lower levels
CCN1CCc2c(c3ccccc3n2CC(O)c2ccc(C)cc2)C1 (racemic) [Compound 44, racemic-2-(2-ethyl-1,2,3,4-tetrahydropyrido[4,3-b]indol-5-yl)-1-p-tolylethanol]	38%			
C/C(=C\n1c2c(c3cc(C)ccc31)CN(C)CC2)c1ccncc1 [Compound 88, (E)-2,3,4,5-tetrahydro-2,8-dimethyl-5-(2-(pyridin-4-yl)prop-1-enyl)-1H-pyrido[4,3-b]indole]		significant treatment effect	caused sedation	other effects in bar test (C57B1I6J mice; doses other than 30 mg/kg, oral): No other effects
Cc1ccc(C(O)Cn2c3c(c4ccccc42)CN(C)CC3)cc1 (racemic) [Compound 53, racemic-2-(1,2,3,4-tetrahydro-2-methylpyrido[4,3-b]indol-5-yl)-1-p-tolylethanol]	66%			
CCN1CCc2c(c3cc(C)ccc3n2CC(O)c2ccc(C)cc2)C1 (racemic) [Compound 51, racemic-2-(2-ethyl-1,2,3,4-tetrahydro-8-methylpyrido[4,3-b]indol-5-yl)-1-p-tolylethanol]	95%			
